Data set [1] has as its system ovarian follicles. The data set is described as follows: Follicle counting 6 weeks after treatment of 21-day-old mice. The class given is in vivo, CD-1 female mice.
Description: Ovarian functions were examined at 6-weeks after treatment in order to evaluate the long-term effect of pharmacological JNK inhibition on female ovarian reserve and other ovary reproductive outcomes.
The test system of data set [2] is JNK. The data set is described as follows: Phosphorylation of JNK in oocytes of primordial follicles, western blot and immunostaining. The class given is in vivo, CD-1 female mice. As to conditions: for activation of JNK in the oocytes of primordial follicles: general statement, no dose given.
Data set [3] deals with γ-H2AX. The experiment in a line: Ovarian expression of γ-H2AX (DNA damage marker) after DOX, immunostaining and western blot. The class given is in vivo. How it is done: (§1) FIG. 2B provides a western blot showing expression of γH2AX and pTAp63α at 3 h and 6 h. The mobility shift of TAp63α indicated phosphorylation (i.e., p-TAp63α), which further indicated cell death initiation through apoptosis.
Expression of γ-H2AX, a well-characterized biomarker of DNA double strand breaks (DDSBs) as well as the major mechanism of DOX’s cytotoxicity on tumorous cells, was detected with administration of DOX.
In general terms: In western blotting, separated proteins are transferred to a membrane and probed.

Data set [4] has as its system CD-1 female mice. The experiment in a line: Ovarian cyclicity by vaginal smear in 21-day-old treated mice. Particulars: 21-day-old mice, last 14 days of 6 weeks post treatment. Type of data set: in vivo.
Description: The transition of various estrous cycle stages of three representative mice (a total of 6-8 mice in each group) are shown for each treatment group, including proestrus, estrus, metestrus, and diestrus.
Ovarian cyclicity was next examined by the method of vaginal smear in the last 14 days of the 6-week post DOX / SP600125 treatment.
Data set [5] concerns TAp63α. The data set is described as follows: Phosphorylation of TAp63α in ovaries, immunostaining and western blot. The class given is in vivo, CD-1 female mice. How it is done:
as §1
TAp63a functions to respond to DNA damage that results in its phosphorylation and subsequent oocyte apoptosis initiation in the primordial follicles.
(§2) Next, 5-day-old CD-1 female mice were intraperitoneally injected with 10 mg/kg DOX and 50 mg/kg SP600125, a specific JNK inhibitor.

Data set [6] concerns JNK (c-Jun N-terminal kinase) signaling pathway. The data set is described as follows: RNA sequencing / Gene Ontology analysis of ovaries after DOX. The class given is in vivo, CD-1 female mice. Particulars: 5-day-old mice, DOX 10 mg/kg i.p., ovaries at 6 hours. How it is done:
Thus, the molecular mechanisms of DOX-induced primordial follicle oocyte apoptosis were investigated as described herein. Fiveday-old CD-1 female mice were intraperitoneally injected with vehicle or 10 mg/kg DOX and ovaries were harvested at 6 hours for RNA sequencing.

The test system of data set [7] is Bax, Puma, Noxa. The experiment in a line: qRT-PCR of apoptosis mediators in whole neonatal ovaries. The class given is in vivo, CD-1 female mice. As to conditions: co-treatment with DOX. How it is done:
as §2
(Quantitative PCR measures a nucleic acid by following its amplification.)

Data set [8] concerns primordial follicles. The experiment in a line: DOX-induced primordial follicle loss in 5-day-old mice. The class given is in vivo, CD-1 female mice. Particulars: co-treatment SP600125 50 mg/kg with DOX 10 mg/kg i.p. How it is done: as §2

“Also recorded” adds a separate entry of the source.

As to `COc1cccc2c1C(=O)c1c(O)c3c(c(O)c1C2=O)C[C@@](O)(C(=O)CO)C[C@@H]3O[C@H]1C[C@H](N)[C@@H](O)[C@H](C)O1` [DOX, (8S,10S)-10-(((2R,4S,5R,6S)-4-amino-5-hydroxy-6-methyltetrahydro-2H-pyran-2-yl)oxy)-6,8,11-trihydroxy-8-(2-hydroxyacetyl)-1-methoxy-7,8,9,10-tetrahydrotetracene-5,12-dione], the “numbers of all stages of ovarian follicles (primordial, primary, secondary, antral)” value in data set [1] (DOX alone) was “remarkably reduced”. In addition, the “phosphorylation of JNK in the oocytes of primordial follicles” value in data set [2] (5-day-old mice, DOX 10 mg/kg i.p., 6 h) is “selectively increased; also recorded: selective hyper-phosphorylation”. Also, the “activation of JNK in the oocytes of primordial follicles” value in data set [2] is “selectively activate”. Further, in data set [3] (DOX 10 mg/kg i.p., 6 h), the “expression of γ-H2AX in ovarian epithelial cells and oocytes” value is recorded as “significantly increased”. Moreover, in data set [3] (after DOX treatment, western blot), the “time at which increased γ-H2AX expression peaked” value was determined as 6 h. For the same compound, the “ovarian cyclicity (estrous cycle stages)” value in data set [4] (DOX alone) is reported as “interfered with mouse ovarian cyclicity”. Also, the “phosphorylation of TAp63a in ovaries” value in data set [5] (6 h after DOX treatment, western blot) is listed as “hyper-phosphorylated”. The “expression of phospho-p63 in oocytes of primordial follicles” value in data set [5] (6 h post DOX treatment, immunostaining) is “significantly induced”. Besides, in data set [6], the “JNK signaling pathway by RNA sequencing Gene Ontology analysis” value was “significantly changed; also recorded: activated”.

On to `O=C1c2ccccc2-c2n[nH]c3cccc1c23` [SP600125, dibenzo[cd,g]indazol-6(2H)-one], for which the “numbers of all staged follicles” value in data set [1] (SP600125 alone) was “did not affect”. In addition, the “effect on DOX-induced reduction of all stages of follicles” value in data set [1] (co-treatment with DOX) is recorded as “effectively prevented the reduction”. In data set [7], the “effect on DOX-induced transcriptional induction of Bax” value is recorded as “prevented the transcriptional induction”, the “effect on DOX-induced transcriptional induction of Noxa” value is “prevented the transcriptional induction” and the “effect on DOX-induced transcriptional induction of Puma” value is given as “prevented the transcriptional induction”. The “ovarian cyclicity (estrous cycle stages)” value in data set [4] (DOX / SP600125 co-treatment) is “comparable ovarian cyclicity to the control group”. In data set [4] (SP600125 alone), the “ovarian cyclicity (estrous cycle stages)” value was “comparable ovarian cyclicity to the control group”. In addition, in data set [5] (5-day-old mice, SP600125 50 mg/kg i.p. with DOX 10 mg/kg i.p., western blot), the “effect on DOX-induced hyper-phosphorylation of TAp63α” value is “effectively prevented; also recorded: blocked the phosphorylation”. In addition, the “effect on cisplatin-induced phosphorylation of TAp63α” value in data set [5] (5-day-old mouse ovaries, SP600125 50 mg/kg i.p. with cisplatin 20 mg/kg i.p.) is “blocked the phosphorylation”. The “effect on DOX-induced primordial follicle loss” value in data set [8] was “significantly ameliorated; also recorded: prevented DOX-induced primordial follicle loss”.

Consider `N.N.[Cl][Pt][Cl]` [cisplatin, cis-diammineplatinum (II) dichloride], for which the “activation of JNK in the oocytes of primordial follicles” value in data set [2] is listed as “selectively activate”.
